For 18 molecules, TGI results are on record in PubChem BioAssay (NCI).

Structures are written as SMILES.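 Dose response: 5 concentrations. Exposure: 48 h. Format: 96-well plates. Endpoint: linear interpolation; highest concentration if not reached. TGI marks complete inhibition of growth.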

Among the test systems are A498 renal; A549 NSCLC; CAKI-1 renal; NCI-H522 lung; OVCAR-3 ovarian; OVCAR-4 ovarian; SNB-75 CNS; UACC-257 melanoma.
Common to all, as to assay: NCI anticancer screen, dose series, 48 h

Take `Cc1cc(N(CCC#N)CCC#N)ccc1/C=C/C(=O)Nc1cccc(Cl)c1`: the TGI in the assay on A498 renal, in the assay on A549 NSCLC, in the assay with CAKI-1 renal, in the assay with NCI-H522 lung, in the assay on OVCAR-3 ovarian and with OVCAR-4 ovarian was above 100 µM throughout. Besides, the TGI with SNB-75 CNS and with UACC-257 melanoma was above 100 µM each time.

In the case of `Cc1c(C#N)c(=O)[nH]c(=O)n1CCN1CCN(C(=O)NCCCCCCNC(=O)N2CCN(CCn3c(C)c(C#N)c(=O)[nH]c3=O)CC2)CC1`, the TGI in the assay on A498 renal, with A549 NSCLC, with CAKI-1 renal, in the assay with OVCAR-3 ovarian, in the assay on OVCAR-4 ovarian and in the assay on SNB-75 CNS was above 100 µM throughout. The TGI in the assay on UACC-257 melanoma is above 100 µM.

`C=C1COC(/C=C(\C)CC/C=C(\C)CCl)C1` (stereo not given): the TGI in the assay with A498 renal, in the assay on A549 NSCLC, with NCI-H522 lung, in the assay on OVCAR-3 ovarian, with OVCAR-4 ovarian and in the assay with SNB-75 CNS was above 100 µM in each case.

On to `CC(=O)OC1CCn2nnc(CO[Si](C)(C)C(C)(C)C)c21` (stereo not given), for which the TGI in the assay with A549 NSCLC, with CAKI-1 renal, in the assay with NCI-H522 lung, in the assay with OVCAR-3 ovarian, in the assay on OVCAR-4 ovarian and with SNB-75 CNS was above 100 µM throughout. Besides, in the assay with UACC-257 melanoma, the TGI is above 100 µM.

For the molecule `CCOC(=O)C(C)(c1cn(C)c2ccccc12)c1cn(C)c2ccccc12`, the TGI with A498 renal is above 100 µM; in the assay on A549 NSCLC, above 100 µM; with CAKI-1 renal it was above 100 µM; in the assay with OVCAR-3 ovarian, above 100 µM; with OVCAR-4 ovarian it was above 100 µM; with SNB-75 CNS it was 51.9 µM. The TGI with UACC-257 melanoma was above 100 µM.

For the molecule `C=CCc1cc(OC)c2c(c1)C(O)CC(c1ccccc1)O2` (stereo not given), the TGI in the assay on A549 NSCLC, in the assay with CAKI-1 renal, in the assay with NCI-H522 lung, with OVCAR-3 ovarian, with OVCAR-4 ovarian and in the assay with SNB-75 CNS was above 100 µM in each case. This molecule also registered a TGI in the assay with UACC-257 melanoma above 100 µM.

In the case of `CCOC(=O)C1Oc2ccc([N+](=O)[O-])c3c2C1(O)CCC3` (stereo not given), the TGI in the assay with A498 renal, in the assay with A549 NSCLC, with NCI-H522 lung, in the assay with OVCAR-3 ovarian, in the assay on OVCAR-4 ovarian and in the assay with SNB-75 CNS was above 100 µM throughout. Moreover, the TGI with UACC-257 melanoma is above 100 µM.

Take `Cc1cc2c(C)n(Cc3ccc(Cl)cc3Cl)nc2c(C#N)c1C`: the TGI in the assay with A498 renal, in the assay on A549 NSCLC, in the assay on CAKI-1 renal, with NCI-H522 lung, in the assay with OVCAR-3 ovarian and in the assay with OVCAR-4 ovarian was above 100 µM each time. Also, the TGI was 62 µM in the assay on SNB-75 CNS and above 100 µM in the assay with UACC-257 melanoma.

As for `C[Si](C)(C)OC1(C#N)C2C3CC4C2C(=O)C2C4C3C21` (stereo not given), the TGI in the assay with A498 renal, in the assay on A549 NSCLC, in the assay on CAKI-1 renal, in the assay on OVCAR-3 ovarian, with OVCAR-4 ovarian and with SNB-75 CNS was above 100 µM each time. This molecule returned a TGI in the assay with UACC-257 melanoma above 100 µM.

Consider `CCOc1ccc2nc(NC(=O)c3c/c(=N\NC(=O)C[N+](C)(C)C)c4ccc(O)cc4o3)sc2c1`, for which the TGI worked out at 28 µM in the assay with A498 renal; 7.84 µM with A549 NSCLC; 18.6 µM with CAKI-1 renal; 4.14 µM with NCI-H522 lung; 0.402 µM in the assay with OVCAR-3 ovarian; 5.96 µM in the assay with OVCAR-4 ovarian. The TGI in the assay with SNB-75 CNS turned out to be 3.53 µM; in the assay on UACC-257 melanoma it was 3.16 µM.

`O=S(=O)(c1ccccc1)C(CN1CCCCC1)S(=O)(=O)c1ccccc1`: the TGI in the assay on A549 NSCLC, with CAKI-1 renal, in the assay on NCI-H522 lung, in the assay on OVCAR-3 ovarian, in the assay with OVCAR-4 ovarian and in the assay with SNB-75 CNS was above 100 µM each time. In the assay with UACC-257 melanoma, the TGI was above 100 µM.

As for `CCOC(=O)c1oc2ccc(OC)c3c2c1CCC3`, the TGI in the assay on A498 renal, in the assay on A549 NSCLC, with NCI-H522 lung, in the assay on OVCAR-3 ovarian, in the assay with OVCAR-4 ovarian and in the assay on SNB-75 CNS was above 100 µM each time. Further, the TGI in the assay on UACC-257 melanoma is 40 µM.

For `COc1cc(C(=O)C/C(CCC(=O)Nc2ccccc2[N+](=O)[O-])=N\NC(=O)CC#N)ccc1O`, the TGI with A498 renal, in the assay with A549 NSCLC, in the assay on CAKI-1 renal, in the assay on NCI-H522 lung, with OVCAR-3 ovarian and in the assay on OVCAR-4 ovarian was above 100 µM each time. The TGI in the assay on SNB-75 CNS and in the assay with UACC-257 melanoma was above 100 µM each time.

`Brc1cccc(C2SCc3nc4ccccc4n32)c1` (stereo not given): the TGI with A549 NSCLC was above 100 µM; with CAKI-1 renal it was above 100 µM; in the assay with NCI-H522 lung it was 36.6 µM; with OVCAR-3 ovarian it was 32.6 µM; with OVCAR-4 ovarian, 63.3 µM; in the assay with SNB-75 CNS, 3.51 µM.

`Cn1cnc2nc(Cl)nc(NC(C)(C)C(C)(C)O)c21`: the TGI with A498 renal, with A549 NSCLC, in the assay on CAKI-1 renal, with NCI-H522 lung, in the assay on OVCAR-3 ovarian and in the assay with OVCAR-4 ovarian was above 100 µM in each case. Moreover, the TGI in the assay on SNB-75 CNS and in the assay with UACC-257 melanoma was above 100 µM each time.

For the molecule `CCCCCCc1cc(C(=O)Nc2cccc(C(F)(F)F)c2)nc(N)n1`, the TGI with A498 renal, with A549 NSCLC, in the assay on CAKI-1 renal, in the assay with OVCAR-3 ovarian, in the assay on OVCAR-4 ovarian and in the assay on SNB-75 CNS was above 100 µM throughout. Also, the TGI in the assay with UACC-257 melanoma is above 100 µM.

Regarding `c1ccc(SC(CCCCC(Sc2ccccc2)Sc2ccccc2)Sc2ccccc2)cc1`, the TGI in the assay with A498 renal, in the assay on A549 NSCLC, in the assay on CAKI-1 renal, in the assay with OVCAR-3 ovarian, in the assay on OVCAR-4 ovarian and with SNB-75 CNS was above 100 µM each time. The TGI in the assay on UACC-257 melanoma is above 100 µM.

For `O=C(O)C1(P(=O)(O)O)CC1`, the TGI with A498 renal, in the assay on A549 NSCLC, with CAKI-1 renal, in the assay on NCI-H522 lung, in the assay with OVCAR-3 ovarian and in the assay on OVCAR-4 ovarian was above 100 µM throughout. Besides, the TGI in the assay on SNB-75 CNS and with UACC-257 melanoma was above 100 µM in each case.
